Columns and labels:
[1] = test system: BA-induced reporter gene expression in gamma3'PE K562 cells; test: effect of extracellular KCl on BA-induced reporter gene activity; assay type: cell-based, human
Experimental: Valinomycin is a potassium ionophore known to cause depolarization of the K^+ gradient existing across cell membranes. To determine whether the effect of valinomycin indicated a requirement for a K^+ gradient for uptake of BA, gamma3'PE reporter cells were incubated in the presence of culture medium supplemented with increasing concentrations of KCl. Thus, as opposed to valinomycin, this treatment extinguishes the existing K^+ gradient from the external side of the membrane without affecting internal K^+ concentrations. Cells cultured in increasing concentrations on KCl were treated for 5 hours with BA and then harvested and assayed for luciferase activity. The results are shown in FIG. 10, wherein the bars indicate the level of reporter gene activity after induction in the presence of the indicated concentration of KCl and the asterisks indicate basal (uninduced) levels of reporter gene activity in replicate cultures.

[2] = test system: gamma globin-regulated luciferase mRNA; test: cells; assay type: cell-based, human
Experimental: Total RNA was prepared by the method of McDonald as described in Sambrook et al., (1989) Molecular Cloning: A Laboratory Manual, 2nd Edition, Cold Spring Harbor Laboratory Press. 10 μg total cellular RNA was electrophoresed through agarose gels containing 3.3% formaldehyde. The electrophoresed RNA was then transferred to nitrocellulose filters by standard methods. Each sample was hybridized to specific probes for gamma globin mRNA, mRNA encoding the erythroid specific transcription factor GATA-1 and 28S ribosomal RNA (which was used for standardization). The gamma globin and GATA-1 probes were cDNA probes, which were labeled with ^32 p by random priming reactions (Promega Biotech Inc.). The 28S ribosomal RNA probe was an oligonucleotide having the sequence 5' […] 3' (SEQ ID NO: 3), which was labeled by 5' end labeling using T4 polynucleotide kinase (New England Biolabs). Nucleotide probes were hybridized to the RNA nitrocellulose filters according to standard techniques. After hybridization, radioactive signals on the nitrocellulose filters were directly quantified using a BioRad GS-250 Molecular Imager. mRNA hybridization intensities were normalized to the amount of 28S ribosomal RNA present for each sample. The results are summarized below in Table 1:
To determine if BA exerts its inductive effects by acting directly on pre-existing proteins in the cells, the effect of the protein synthesis inhibitor cycloheximide (CHX) on BA-induced expression of RNA was analyzed. In these experiments, gamma3'PE cells were incubated with 150 μg/ml CHX for 2 hr prior to addition of BA (5 mM). Control cells were incubated with either CHX or BA alone or were mock incubated. Cells were harvested 5 hr later for preparation of total RNA. RNA samples were electrophoresed, transferred to nitrocellulose and hybridized to a ^32 P-labeled luciferase cDNA probe as described in Example 4. The radioactive signals on the filter were quantitated using a BioRad GS-250 Molecular Imager and mRNA levels were normalized to values obtained for mock treated samples. […]

[3] = test system: GATA-1 mRNA; test: GATA-1 mRNA level (Northern) with BA and/or cycloheximide in gamma3'PE cells; assay type: cell-based, human
Experimental: To determine if BA exerts its inductive effects by acting directly on pre-existing proteins in the cells, the effect of the protein synthesis inhibitor cycloheximide (CHX) on BA-induced expression of RNA was analyzed. In these experiments, gamma3'PE cells were incubated with 150 μg/ml CHX for 2 hr prior to addition of BA (5 mM). Control cells were incubated with either CHX or BA alone or were mock incubated. Cells were harvested 5 hr later for preparation of total RNA. RNA samples were electrophoresed, transferred to nitrocellulose and hybridized to a ^32 P-labeled luciferase cDNA probe as described in Example 4. The radioactive signals on the filter were quantitated using a BioRad GS-250 Molecular Imager and mRNA levels were normalized to values obtained for mock treated samples. The results are presented graphically in FIG. 12, Panel A. BA treatment alone increased gamma globin-regulated luciferase mRNA by approximately 6 fold.
The results, normalized to mock treated samples, are depicted graphically in FIG. 12, Panel B. In contrast to luciferase mRNA which was induced by BA treatment, the level of GATA-1 RNA decreases about 3 fold in response to BA treatment.

[4] = test system: gamma globin reporter gene activity in gamma3'PE K562 cells (protein kinase C inhibition); test: effect of the pKC inhibitor hypericin on basal and BA-induced reporter gene activity; assay type: cell-based, human; settings: 10 mM hypericin, 1 hour before 5 mM BA for 24 hours
Experimental: Consistent with the results using the pKC activator (-) indolactam V are the results of experiments utilizing the pKC inhibitor hypericin. In these experiments, cells were incubated in the presence or absence of hypericin (10 mM; LC Laboratories) for one hour prior to treatment with 5 mMBA for 24 hours, followed by harvesting of the cells and assaying of luciferase activity.

[5] = test system: BA-mediated induction of luciferase activity in gamma3'PE K562 cells; test: effect of transport inhibitors on BA-induced reporter gene activity in gamma3'PE K562 cells; assay type: cell-based, human
Experimental: To characterize uptake of butyric acid by erythroid cells, K562 cells stably transfected with gamma3'PE were treated with BA in the presence of various transport inhibitors. […] Cells were maintained in the continuous presence of both BA and the inhibitor for 24 hours and then luciferase activity in the cells was measured.

[6] = test system: 14C BA transport into K562 cells; test: 14C butyric acid incorporation into gamma3'PE-transfected K562 cells; assay type: cell-based, human; settings: valinomycin 10 μM, 1 hour preincubation; 50 μM 14C BA
Experimental: To directly examine whether transport of BA into erythroid cells required an intact K+ gradient, the incorporation of ^14 C BA into gamma3'PE-transfected K562 cells was assayed in the presence and absence of 10 μM valinomycin. Cells were incubated with 10 μM valinomycin for 1 hour prior to addition of ^14 C butyric acid (obtained commercially from Dupont/New England Nuclear) to a final concentration of 50 μM. At various times after addition of ^14 C BA, cells were harvested by vacuum filtration through a GF/C filter (Whatman) and washed with a total of 5 ml of RPMI culture media. Radioactivity associated with the cells was quantified directly by liquid scintillation counting of the filter. The results, shown in FIG. 11, indicate that the rate of ^14 C BA incorporation into the cells is inhibited nearly three fold by the addition of valinomycin. Although cells treated with valinomycin did accumulate some ^14 C BA, it is not clear whether this was actually internalized or bound to the surface of the cell. Neutralization of the potassium gradient could be expected to selectively prevent internalization but not binding of radioligand. […] Accordingly, the results described herein are consistent with an erythroid-specific transport mechanism for uptake of BA that is dependent upon an intact K^+ gradient across the cell membrane.

[7] = test system: K562 cells; test: trypan blue exclusion; assay type: cell-based, human
[8] = test system: BA uptake by colonocytes; settings: Mascolo et al. 1991; cited from earlier work

[Cl-].[K+] [KCl]
basal level globin expression at higher K+ concentrations ([1]; K+ above approximately 200 mM): a reduction in basal level globin expression was observed at higher K^+ concentrations
external K+ concentration inhibiting BA-induced reporter gene expression ([1]; KCl in medium, BA 5 hours): approximately 200 mM
effect on basal level gene expression ([1]; approximately 200 mM KCl): basal level gene expression was not affected

C[C@@H]1C[C@@H]([C@H](O)CC2CC(=O)NC(=O)C2)C(=O)[C@@H](C)C1 [cycloheximide]
effect of cycloheximide alone on luciferase mRNA ([2]; 150 μg/ml CHX alone): significant increase in gamma globin-regulated luciferase mRNA, albeit to a lower level than that observed with BA
effect of cycloheximide on BA-mediated induction of luciferase mRNA ([2]; CHX 150 μg/ml 2 hr before BA 5 mM): failed to block BA-mediated induction of luciferase mRNA
effect of cycloheximide alone on GATA-1 mRNA level ([3]; 150 μg/ml CHX alone): insensitive to cycloheximide treatment alone
effect of cycloheximide on BA induced decrease in GATA-1 mRNA level ([3]; CHX 150 μg/ml plus BA 5 mM): sensitive to cycloheximide treatment

Cc1cc(O)c2c(=O)c3c(O)cc(O)c4c5c(O)cc(O)c6c(=O)c7c(O)cc(C)c8c1c2c(c34)c(c78)c65 [hypericin]
effect on basal level and BA induced globin gene expression [4]: significant reduction in both basal level and BA induced globin gene expression

CC(C)[C@@H]1NC(=O)[C@H](C)OC(=O)[C@@H](C(C)C)NC(=O)[C@@H](C(C)C)OC(=O)[C@H](C(C)C)NC(=O)[C@H](C)OC(=O)[C@@H](C(C)C)NC(=O)[C@@H](C(C)C)OC(=O)[C@H](C(C)C)NC(=O)[C@H](C)OC(=O)[C@@H](C(C)C)NC(=O)[C@@H](C(C)C)OC1=O [valinomycin]
reduction in BA-mediated globin gene induction ([5]; valinomycin 10 μM, 24 hours): 4 fold
effect on basal level globin gene expression ([5]; valinomycin, no BA): did not affect basal level globin gene expression
inhibition of rate of 14C BA incorporation [6]: three
non-specific toxic effect [7]: did not result from a non-specific toxic effect
effect on BA uptake by colonocytes [8]: not inhibited by valinomycin

— patent US5700640A, “Inducers of gamma globin gene expression and screening assays therefor” (priority 1994, dated 1997)
